# Laboratory results taken from patent publication US20110183978A1, “Phenylpyri(mi)dinylazoles” (Bayer CropScience AG, priority 2009, published 2011).
# Assays:
# [1] = physchem
# [2] = system: Alternaria solani; assay: Example M: in vivo test on Alternaria solani (leaf blotch disease/tomato/protective); settings: 168 h, tomato, protective, 500 ppm active substance, assessed 7 days after inoculation, read-out: % Wirkungsgrad (activity level)
# Procedure: Solvent: 49 parts by weight N,N-dimethylformamide Emulsifier: 1 part by weight alkylaryl polyglycol ethers For the preparation of a suitable active substance preparation, 1 part by weight of active substance is mixed with the stated quantities of solvent and emulsifier and the concentrate is diluted to the desired concentration with water. For the testing for protective activity, young tomato plants are sprayed with the active substance preparation at the stated application dosage. […] 7 days after the inoculation, the assessment takes place.
# [3] = LogPA (logP of the stated pure compound or, in a mixture, of the main isomer, 1-substituted 3-aryl-1H-pyrazole)
chromatographic logP ([1]; LogPA),"chromatographic logP ([1]; pH 2.7, logP (pH 2.7))",Compound,other results
1.61,–,CC(C)n1cc(-c2ncnc3[nH]ccc23)c(-c2ccc(F)cc2)n1 [Compound 310],pest or weed control at 500 ppm [2]: 95%
2.9,–,CCOC(=O)CC(CC)CC(=O)Nc1cc(-c2cn(CC)nc2-c2ccc(F)cc2)ccn1 (centres unmarked) [Compound 332],pest or weed control at 500 ppm [2]: 90%
2.55,–,CC(C)Cn1cc(-c2ccnc(NCC3CC3)n2)c(-c2ccc(F)cc2)n1 [Compound 273],pest or weed control at 500 ppm [2]: 90%
1.79,–,CC(C)n1cc(-c2ncnc3[nH]cnc23)c(-c2ccc(F)cc2)n1 [Compound 282],pest or weed control at 500 ppm [2]: 70%
2.05,–,CC(C)Nc1nccc(-c2cn(CC(F)F)nc2-c2ccc(F)cc2)n1 [Compound 364],pest or weed control at 500 ppm [2]: 95%
2.38,–,CCC(=O)Nc1cc(-c2cn(Cc3cccc(C#N)c3)nc2-c2ccc(F)cc2)ccn1 [Compound 302],pest or weed control at 500 ppm [2]: 95%
1.74,–,CC(C)Nc1nccc(-c2cn(CCC#N)nc2-c2ccc(F)cc2)n1 [Compound 362],pest or weed control at 500 ppm [2]: 80%
1.91,–,CCn1cc(-c2ccnc(NC(C)C)n2)c(-c2ccc(F)cc2)n1 [Compound 370],pest or weed control at 500 ppm [2]: 95%
3.13,–,CC(c1ccccc1F)n1cc(-c2ccnc(NC(=O)C3CC3)c2)c(-c2ccc(F)cc2)n1 (centres unmarked) [Compound 259],pest or weed control at 500 ppm [2]: 90%
3.5,–,COCC(=O)Nc1cc(-c2cn(C(C)c3ccccc3F)nc2-c2ccc(F)cc2)ccn1 (centres unmarked) [Compound 244],pest or weed control at 500 ppm [2]: 94%
1.59,–,CC(C1CC1)n1cc(-c2ccncc2)c(-c2ccc(F)cc2)n1 (centres unmarked) [Compound 305],pest or weed control at 500 ppm [2]: 100%
–,2.9,"COCCn1ncc(Br)c1-c1ccc(F)cc1 [[VI-7], 4-Bromo-5-(4-fluorophenyl)-1-(2-methoxyethyl)-1H-pyrazole]",–
–,4.76,"CC(C)Cn1cc(B2OC(C)(C)C(C)(C)O2)c(-c2ccc(F)cc2)n1 [[V-3], 3-(4-Fluorophenyl)-1-isobutyl-4-(4,4,5,5-tetramethyl-1,3,2-dioxaborolan-2-yl)-1H-pyrazole]","chromatographic logP ([1]; pH 2.3, LogP (pH 2.3)): 4.89"
3.45,–,COCC(=O)Nc1cc(-c2c(-c3ccc(Cl)cc3F)nn(C)c2C(F)(F)F)ccn1 [Compound 202],–
–,2.86,"Cn1cc(Br)c(-c2ccc(F)cc2)n1 [[V1-8], 4-Bromo-3-(4-fluorophenyl)-1-methyl-1H-pyrazole]",–
–,0.27,"CC1(C)OB(c2ccnc(NC(=O)CC3CC3)c2)OC1(C)C [[XV-a-5], 2-Cyclopropyl-N-[4-(4,4,5,5-tetramethyl-1,3,2-dioxaborolan-2-yl)pyridin-2-yl]acetamide]",–
–,3.58,"COCCn1cc(B2OC(C)(C)C(C)(C)O2)c(-c2ccc(F)cc2)n1 [[V-2], 3-(4-Fluorophenyl)-1-(2-methoxyethyl)-4-(4,4,5,5-tetramethyl-1,3,2-dioxaborolan-2-yl)-1H-pyrazole]","chromatographic logP ([1]; pH 2.3, LogP (pH 2.3)): 3.58"
–,4.43,"Fc1ccc(-c2nn(CC3CC3(Cl)Cl)cc2Br)cc1 (centres unmarked) [[VI-10], 4-bromo-1-[(2,2-dichlorocyclopropyl)methyl]-3-(4-fluorophenyl)-1H-pyrazole]","chromatographic logP ([1]; pH 2.3, LogP (pH 2.3)): 4.43"
–,–,"c1ccc(COc2ccccc2-c2c(-c3ccncc3)cnn2C2CCCCO2)cc1 (centres unmarked) [Compound 98, 4-{5-[2-(benzyloxy)phenyl]-1-(tetrahydro-2H-pyran-2-yl)-1H-pyrazol-4-yl}pyridine]","chromatographic logP [1, 3]: 1.64"
3.45,–,Cc1csc2c(-c3cn(CC4CC4)nc3-c3ccc(F)cc3)ncnc12 [Compound 289],–
–,–,FC(F)(F)Oc1ccc(-c2c(-c3ccncc3)cnn2C2CCCCO2)cc1 (centres unmarked) [Compound 71],"chromatographic logP [1, 3]: 1.78"
–,–,"CS(=O)(=O)c1ccc(-c2c(-c3ccncc3)cnn2C2CCCCO2)cc1 (centres unmarked) [Compound 68, 4-{5-[4-(methylsulphonyl)phenyl]-1-(tetrahydro-2H-pyran-2-yl)-1H-pyrazol-4-yl}pyridine]","chromatographic logP [1, 3]: 0.96"
2.44,–,CC(=O)Nc1nccc(-c2cn(CC(C)C)nc2-c2ccc(F)cc2)n1 [Compound 357],–
–,4.77,"CC(C)(C)OC(=O)N1CCC(n2cc(Br)c(-c3ccc(F)cc3)n2)CC1 [[VI-27], Tert-butyl 4-[4-bromo-3-(4-fluorophenyl)-1H-pyrazol-1-yl]piperidin-1-carboxylate]","chromatographic logP ([1]; pH 2.3, LogP (pH 2.3)): 4.77"
1.91,–,Fc1ccc(-c2nn(C3CCCCC3)cc2-c2ccncc2)cc1 [Compound 168],–
2.37,–,COCC(=O)Nc1nccc(-c2cn(C(C)C)nc2-c2ccc(F)cc2)n1 [Compound 354],–

chromatographic logP ([1]; LogPA),"chromatographic logP ([1]; pH 2.7, logP (pH 2.7))",Compound,other results
–,3.37,"CCn1cc(Br)c(-c2ccc(F)cc2)n1 [[VI-2], 4-Bromo-1-ethyl-3-(4-fluorophenyl)-1H-pyrazole]","chromatographic logP ([1]; pH 2.3, LogP (pH 2.3)): 3.32"
–,3.15,"CCn1ncc(Br)c1-c1ccc(F)cc1 [[VI-3], 4-Bromo-1-ethyl-5-(4-fluorophenyl)-1H-pyrazole]",–
–,–,"Fc1ccc(-c2c(-c3ccncc3)cnn2C2CCCCO2)c2ccccc12 (centres unmarked) [[X-3], 4-[5-(4-fluoro-1-naphthyl)-1-(tetrahydro-2H-pyran-2-yl)-1H-pyrazol-4-yl]pyridine]","chromatographic logP ([1]; pH 2.3, LogP (pH 2.3)): 1.72"
–,–,Fc1ccc(-c2nn(Cc3cccnc3)cc2-c2ccncc2)cc1 [Compound 100],"chromatographic logP [1, 3]: 0.78"
2.55,–,CC(C)C(=O)Nc1nccc(-c2cn(C(C)C)nc2-c2ccc(F)cc2)n1 [Compound 355],–
3.65,–,CCOC(=O)Nc1cc(-c2cn(C(C)c3ccccc3F)nc2-c2ccc(F)cc2)ccn1 (centres unmarked) [Compound 263],–
–,–,FC(F)(F)c1cccc(-c2nn(C3CCCCO3)cc2-c2cc(N3CCOCC3)ncn2)c1 (centres unmarked) [Compound 36],"chromatographic logP [1, 3]: 2.1"
–,0.92,"Fc1ccc(-c2n[nH]c(Br)c2-c2ccncc2)cc1 [[XXVIII-1], 4-[5-Bromo-3-(4-fluorophenyl)-1H-pyrazol-4-yl]pyridine]",–
–,–,"c1cc(-c2cnn(C3CCCCO3)c2-c2ccc(N3CCOCC3)cc2)ccn1 (centres unmarked) [[X-15], 4-{4-[4-(pyridin-4-yl)-1-(tetrahydro-2H-pyran-2-yl)-1H-pyrazol-5-yl]phenyl}morpholine]","chromatographic logP ([1]; pH 2.3, LogP (pH 2.3)): 1.26"
–,–,Fc1ccc(-c2nn(Cc3ncc[nH]3)cc2-c2ccncc2)cc1 [Compound 143],"chromatographic logP [1, 3]: 0.41"
–,–,"Fc1ccc(-c2c(-c3ccncc3)cnn2C2CCCCO2)cc1Cl (centres unmarked) [Compound 51, 4-[5-(3-chloro-4-fluorophenyl)-1-(tetrahydro-2H-pyran-2-yl)-1H-pyrazol-4-yl]pyridine]","chromatographic logP [1, 3]: 1.57"
–,3.63,"CSCCn1cc(Br)c(-c2ccc(F)cc2)n1 [[VI-15], 4-Bromo-3-(4-fluorophenyl)-1-[2-(methylsulphanyl)ethyl]-1H-pyrazole]","chromatographic logP ([1]; pH 2.3, LogP (pH 2.3)): 3.63"
–,3.63,"CC(c1ccccc1F)n1cc(Br)c(-c2ccc(F)cc2)n1 (centres unmarked) [[VI-9], 4-bromo-3-(4-fluorophenyl)-1-[1-(2-fluorophenyl)ethyl]-1H-pyrazole]","chromatographic logP ([1]; pH 2.3, LogP (pH 2.3)): 4.77"
2.38,–,COCC(=O)Nc1cc(-c2c(-c3ccc(F)cc3O)nn(C)c2OC(F)F)ccn1 [Compound 201],–
–,–,COc1ccc(-c2nn(C3CCCCO3)cc2-c2ccnc3[nH]ccc23)cc1 (centres unmarked) [Compound 80],"chromatographic logP [1, 3]: 1.87"
–,5.51,"CC(C)n1nc(-c2ccc(F)cc2)c(Br)c1C(F)(F)F [[VI-24], 4-Bromo-3-(4-fluorophenyl)-1-isopropyl-5-(trifluoromethyl)-1H-pyrazole]","chromatographic logP ([1]; pH 2.3, LogP (pH 2.3)): 5.51"
–,4.42,"CC1(C)OB(c2cn(CC3CC3)nc2-c2ccc(F)cc2)OC1(C)C [[V-8], 1-(Cyclopropylmethyl)-3-(4-fluorophenyl)-4-(4,4,5,5-tetramethyl-1,3,2-dioxaborolan-2-yl)-1H-pyrazole]","chromatographic logP ([1]; pH 2.3, LogP (pH 2.3)): 4.42"
–,3.47,"Cn1cc(B2OC(C)(C)C(C)(C)O2)c(-c2ccc(F)cc2)n1 [[V-9], 3-(4-Fluorophenyl)-1-methyl-4-(4,4,5,5-tetramethyl-1,3,2-dioxaborolan-2-yl)-1H-pyrazole]","chromatographic logP ([1]; pH 2.3, LogP (pH 2.3)): 3.47"
–,3.15,"COc1cc(F)ccc1-c1nn(C)c(OC(F)F)c1Br [[VI-b-4], 4-Bromo-5-(difluoromethoxy)-3-(4-fluoro-2-methoxyphenyl)-1-methyl-1H-pyrazole]",–
–,–,CC(C)(C)C(=O)Nc1cc(-c2cnn(C3CCCCO3)c2-c2cccc(C(F)(F)F)c2)ccn1 (centres unmarked) [Compound 82],"chromatographic logP [1, 3]: 3.84"
–,1.45,"CC(C)Nc1nccc(C(=CN(C)C)C(=O)c2ccc(F)cc2)n1 [[XLV-1], 3-(Dimethylamino)-1-(4-fluorophenyl)-2-[2-(isopropylamino)pyrimidin-4-yl]prop-2-en-1-one]",–
–,–,"c1cnc2c(-c3c(-c4ccncc4)cnn3C3CCCCO3)cccc2c1 (centres unmarked) [[X-24], 8-[4-(pyridin-4-yl)-1-(tetrahydro-2H-pyran-2-yl)-1H-pyrazol-5-yl]quinoline]","chromatographic logP ([1]; pH 2.3, LogP (pH 2.3)): 1.09"
4.25,–,CC(C)Cn1cc(-c2ccnc(N(C(=O)C(C)C)C(C)C)n2)c(-c2ccc(F)cc2)n1 [Compound 185],–
–,–,CC(C)n1ncc(-c2ccnc(N)c2)c1-c1ccc(F)cc1 [Compound 97],"chromatographic logP [1, 3]: 1.25"
–,–,"Clc1cccc(-c2c(-c3ccncc3)cnn2C2CCCCO2)c1Cl (centres unmarked) [[X-20], 4-[5-(2,3-dichlorophenyl)-1-(tetrahydro-2H-pyran-2-yl)-1H-pyrazol-4-yl]pyridine]","chromatographic logP ([1]; pH 2.3, LogP (pH 2.3)): 1.66"
3.96,–,CC(C)S(=O)(=O)Nc1cc(-c2cn(CC(F)F)nc2-c2ccc(F)cc2)ccn1 [Compound 234],–

Compound,chromatographic logP ([1]; LogPA),"chromatographic logP ([1]; pH 2.7, logP (pH 2.7))",other results
"CC(C)n1cc(-c2ccnc3ccccc23)c(-c2ccc(F)cc2)n1 [[I-1], 4-[3-(4-Fluorophenyl)-1-isopropyl-1H-pyrazol-4-yl]quinoline]",–,2.23,–
